The text below walks through data of patent US4948796A, “Piperazine derivative or its salt, process for producing the same and pharmaceutical composition comprising the same as active ingredient” (Toyama Chemical Co., Ltd., priority 1988, dated 1990).

Structures can show the parent of a compound that is named as a salt.

Common to all, as to type: in vivo
Data set [1] has as its system vertebral blood flow (VBF). The data set is described as follows: Vertebral Blood Flow Increasing Activity (anesthetized dogs, intravenous). Conditions: anesthetized mongrel dogs; for ED50: Canis lupus familiaris, iv, increase of VBF by 1 mg/kg papaverine hydrochloride regarded as 100%, 2-5 per group, test compounds as hydrochloride; for Cerebral vessel selectivity: ratio of percent increase of VBF to FBF (femoral blood flow), i.v. The procedure:
Next, the pharmacological activity of typical compounds of this invention is explained in detail below.
- 1. Vertebral Blood Flow Increasing Activity
Mongrel dogs of both sexes weighing from 12 to 20 kg were anesthetized with sodium pentobarbital.
Vertebral blood flow (VBF) and femoral blood flow (FBF) were measured by an electromagnetic flowmeter (MFV-2100 and MFV-3100, Nihon Kohden).
Test compound solutions were injected intravenously in a volume of 0.2 ml/kg.
Also, the ratio of percent increase of VBF to FBF elicited by test compounds were indicated as an index of cerebral vessel selectivity.
The test compounds were dissolved in a physiological saline solution.
Thereafter, the resulting solution was diluted with a physiological saline solution to the desired concentration. Each study was carried out using 2-5 dogs per group.

For data set [2], the system named is male ICR mice. Description: Acute Toxicity. Conditions: intravenous, 25 mg/kg, three male ICR mice per group. The procedure: (§1) Next, the pharmacological activity of typical compounds of this invention is explained in detail below. The compounds of this invention shown in Table 1 where subjected to the following test in the form of a hydrochloride to obtain the results shown in each test item.
A test compounds were intravenously administered to a group of three male ICR mice, weighing 20 to 26 g. The mortality was determined.
The test compounds were dissolved in a physiological saline solution. However, the test compound Nos. 7, 23 and 24 were dissolved in an aqueous solution containing 10% of dimethylsulfoxide and 10% of Cremophor EL and flunarizine was dissolved in 0.1M aqueous lactic acid solution.

For data set [3], the system named is male ICR mice. The data set is described as follows: Protective Effect against Hypobaric Hypoxia. Conditions: Mus musculus, po, 2 h, 80 mg/kg orally, one or two hours before 210 mmHg, vehicle group (5% dimethylsulfoxide, 5% Cremophor EL) = 100, read-out: Survival time (ratio). Here is the method: as §1
2. Protective Effect against Hypobaric Hypoxia
Each mouse was given 80 mg/kg of test compound orally one or two hours before the mice were placed under the hypobaric condition, and the survival time was measured.
The test compounds were dissolved in a physiological saline solution. However, the test compounds Nos. 7 and 23 were dissolved in an aqueous solution containing 5% of dimethylsulfoxide and 5% of Cremophor EL, and the control compound A (flunarizine) was dissolved in a 1.5% aqueous tartaric acid solution and then they were administered. Each study was carried out using 20 mice per group.
The protective effect against hypobaric hypoxide was determined as a ratio of the survival time of the group to which the test compounds was administered to that of the group to which an aqueous solution containing 5% of dimethylsulfoxide and 5% of Cremophor EL, the latter being indicated as 100.

Take `COc1ccc(/C=C/CN2CCN(C3c4ccccc4CCc4ncccc43)CC2)c(OC)c1OC` (stereo not shown) [compound 8]: in data set [1], the 50% effective dose (ED50) amounted to 0.14 mg/kg and the Cerebral vessel selectivity is given as 4.5. Moreover, the mortality entry in data set [2] was “no death case was found”.
For `Clc1cccc(/C=C/CN2CCN(C3c4ccccc4CCc4ncccc43)CC2)c1` (stereo not shown) [compound 11], the response vs control in vivo at 80 mg/kg in data set [3] worked out at 146%. Besides, the mortality result in data set [2] is reported as “no death case was found”.
For the compound `COc1ccc(/C=C/CN2CCN(C3c4ccccc4CCc4ncccc43)CC2)cc1` (stereo not shown) [compound 5], in data set [1], the ED50 amounted to 0.3 mg/kg and the Cerebral vessel selectivity is listed as 8.8.
For the compound `O=[N+]([O-])c1cccc(/C=C/CN2CCN(C3c4ccccc4CCc4ccc([N+](=O)[O-])cc43)CC2)c1` (stereo not shown) [compound 26], in data set [1], the ED50 was found to be 0.28 mg/kg and the Cerebral vessel selectivity is recorded as 4.4.
In the case of `Clc1cccc(/C=C/CN2CCN(C3c4ccccc4CCc4ncccc43)CC2)c1Cl` (stereo not shown) [compound 18], in data set [1], the ED50 worked out at 0.3 mg/kg and the Cerebral vessel selectivity was determined as 10.4. The mortality entry in data set [2] is “no death case was found”.
As for `C(=C\c1ccccc1)/CN1CCN(C2c3ccccc3CCc3cnccc32)CC1` (stereo not shown) [compound 2], in data set [1], the ED50 worked out at 0.34 mg/kg and the Cerebral vessel selectivity turned out to be 8.8.
Regarding `O=[N+]([O-])c1cccc2c(/C=C/CN3CCN(C4c5ccccc5CCc5ncccc54)CC3)cccc12` (stereo not shown) [compound 21], in data set [1], the ED50 came to 0.33 mg/kg and the Cerebral vessel selectivity is reported as 3.4. In addition, in data set [2], the mortality entry is listed as “no death case was found”.
As to `C(=C\c1ccc2sccc2c1)/CN1CCN(C2c3ccccc3CCc3ncccc32)CC1` (stereo not shown) [compound 19], in data set [1], the ED50 stood at 0.32 mg/kg and the Cerebral vessel selectivity is listed as 4.1. For the same compound, the response vs control in vivo at 80 mg/kg in data set [3] amounted to 138%. Moreover, in data set [2], the mortality result is reported as “no death case was found”.
For the compound `Clc1ccc(/C=C/CN2CCN(C3c4ccccc4CCc4ncccc43)CC2)cc1Cl` (stereo not shown) [compound 12], in data set [1], the ED50 is 0.3 mg/kg and the Cerebral vessel selectivity stood at 5.6. Further, the response vs control in vivo at 80 mg/kg in data set [3] amounted to 129%. Moreover, the mortality result in data set [2] is “no death case was found”.
The matching figures for `COc1ccc(/C=C/CN2CCN(C3c4ccccc4CCc4ncccc43)CC2)cc1Oc1ccccc1` (stereo not shown) [compound 7]: 0.11 mg/kg, 16.7, 158% and “no death case was found”.
For `C(=C\c1cccc2ccsc12)/CN1CCN(C2c3ccccc3CCc3ncccc32)CC1` (stereo not shown) [compound 20], in that order: 0.36 mg/kg, 4.1, 142% and “no death case was found”.
Regarding `COc1ccc(/C=C/CN2CCN(C3c4ccccc4CCc4ncccc43)CC2)cc1[N+](=O)[O-]` (stereo not shown) [compound 10], in data set [1], it took a dose of 0.17 mg/kg to reach the 50% effect level (ED50) and the Cerebral vessel selectivity amounted to 9.1. Further, the mortality entry in data set [2] is given as “no death case was found”.
As for `COc1ccc(/C=C/CN2CCN(C3c4ccccc4CCc4ncccc43)CC2)cc1Oc1cccnc1` (stereo not shown) [compound 16], in data set [1], the 50% effect level (ED50) was put at a dose of 0.15 mg/kg and the Cerebral vessel selectivity is on record as 3.6.
In the case of `COc1cc(/C=C/CN2CCN(C3c4ccccc4CCc4ncccc43)CC2)ccc1Oc1cccnc1` (stereo not shown) [compound 15], in data set [1], the ED50 turned out to be 0.18 mg/kg and the Cerebral vessel selectivity is listed as 4.6.
Turning to `O=[N+]([O-])c1ccc(/C=C/CN2CCN(C3c4ccccc4CCc4ncccc43)CC2)cc1` (stereo not shown) [compound 6], the response vs control in vivo at 80 mg/kg in data set [3] stood at 135%. Moreover, the mortality result in data set [2] is “no death case was found”.
Regarding `O=[N+]([O-])c1ccc2c(c1)C(N1CCN(C/C=C/c3ccccc3)CC1)c1ccccc1SC2` (stereo not shown) [compound 25], in data set [1], the ED50 worked out at 0.28 mg/kg and the Cerebral vessel selectivity came to 10.6.
`O=[N+]([O-])c1ccc2c(c1)C(N1CCN(C/C=C/c3ccccc3)CC1)c1ccccc1CC2` (stereo not shown) [compound 23]: in data set [1], the ED50 turned out to be 0.32 mg/kg and the Cerebral vessel selectivity is 5.0. Moreover, in data set [3], the response vs control in vivo at 80 mg/kg turned out to be 205%. Also, the mortality result in data set [2] was “no death case was found”.
The matching figures for `COc1ccc(/C=C/CN2CCN(C3c4ccccc4CCc4ncccc43)CC2)cc1OC` (stereo not shown) [compound 3]: 0.3 mg/kg, 5.0, 136% and “no death case was found”.
`COc1ccc(/C=C/CN2CCN(C3c4ccccc4CCc4ncccc43)CC2)cc1N` (stereo not shown) [compound 17]: the response vs control in vivo at 80 mg/kg in data set [3] worked out at 143%. In data set [2], the mortality result is “no death case was found”.
Turning to `Fc1ccc(C(c2ccc(F)cc2)N2CCN(C/C=C/c3ccccc3)CC2)cc1` [Control compd. A, Flunarizine dihydrochloride, reference compound], in data set [1], the ED50 turned out to be 0.28 mg/kg and the Cerebral vessel selectivity came out at 2.1. For the same compound, the response vs control in vivo at 80 mg/kg in data set [3] worked out at 61%. Moreover, in data set [2], the mortality entry was “no death case was found”.
Consider `Fc1ccc(/C=C/CN2CCN(C3c4ccccc4CCc4ncccc43)CC2)cc1F` (stereo not shown) [compound 13], for which the response vs control in vivo at 80 mg/kg in data set [3] turned out to be 148%. In addition, the mortality entry in data set [2] is “no death case was found”.
On to `C(=C\c1ccc2c(c1)OCO2)/CN1CCN(C2c3ccccc3CCc3ncccc32)CC1` (stereo not shown) [compound 9], for which, in data set [1], the ED50 is 0.45 mg/kg and the Cerebral vessel selectivity is on record as 6.9. In addition, the response vs control in vivo at 80 mg/kg in data set [3] is 155%.
Regarding `O=[N+]([O-])c1cccc(/C=C/CN2CCN(C3c4ccccc4CCc4ncccc43)CC2)c1` (stereo not shown) [compound 14], in data set [1], the 50% effect level (ED50) was put at a dose of 0.3 mg/kg and the Cerebral vessel selectivity turned out to be 3.8. The response vs control in vivo at 80 mg/kg in data set [3] worked out at 139%. Also, in data set [2], the mortality result is “no death case was found”.
For the compound `C(=C\c1ccccc1)/CN1CCN(C2c3ccccc3CCc3ncccc32)CC1` (stereo not shown) [compound 1], the response vs control in vivo at 80 mg/kg in data set [3] stood at 180%. The mortality result in data set [2] was “no death case was found”.
In the case of `C1=Cc2ncccc2C(N2CCN(C/C=C/c3ccccc3)CC2)c2ccccc21` (stereo not shown) [compound 22], in data set [1], it took a dose of 0.15 mg/kg to reach the 50% effect level (ED50) and the Cerebral vessel selectivity amounted to 5.4.
Regarding `COc1ccccc1/C=C/CN1CCN(C2c3ccccc3CCc3ccc([N+](=O)[O-])cc32)CC1` (stereo not shown) [compound 24], in data set [1], it took a dose of 0.35 mg/kg to reach the 50% effect level (ED50) and the Cerebral vessel selectivity is recorded as 14.3. Besides, in data set [2], the mortality result is reported as “no death case was found”.
As for `COc1ccccc1/C=C/CN1CCN(C2c3ccccc3CCc3ncccc32)CC1` (stereo not shown) [compound 4], in data set [1], the 50% effect level (ED50) was put at a dose of 0.22 mg/kg and the Cerebral vessel selectivity worked out at 3.0.

The ED50 is the dose at which the effect has come halfway, by size or by number of responders.
